Data from patent publication US20070238757A1, “NOVEL TREATMENT” (SmithKline Beecham p.l.c., priority 2000, published 2007).

Tested on: rat primary hippocampal neurons
Assay: Neurite outgrowth assay in primary hippocampal neurons
Assay type: cell-based
Settings: 48 hours, FIG. 2
Protocol: The hippocampi of gestational day 18 rat embryos were dissected out, incubated in trypsin (0.08%, 30 min at 37° C.) and dissociated mechanically (Skaper et al., 19990). Hippocampal cells were resuspended in neurobasal medium supplemented with B27, anti-oxidants, 1 mM glutamine, 25 μM glutamate, 1 mM pyruvate, +/−Compound 1 (10 nM-5 μM) or vehicle (DMSO) control.
For outgrowth assays, cells were plated at a density of 3000 cells/well into 96 well dishes that had previously been coated with poly-D-lysine followed by 10% FCS. For RNA isolation, cells were plated at 1×10^6 cells/well into a 35 mm tissue culture dish that had previously been coated with poly-D-lysine followed by 10% FCS.
Compound (I) was solubilised in DMSO and added to culture medium at time of cell plating at a dilution of 1:1000. Vehicle only (1:1000) was added to culture medium of untreated controls. […] Assays were quantified using a KS300 image analysis system (Imaging Associates, UK). For each cell measured, the length from the edge of the cell to the end of the longest neurite was measured for 100 cells/well for each treatment in triplicate. […] Results are expressed as a percentage of the length of neurites of cells treated with vehicle alone.
# Compound (I) at 0.01 and 0.05 μM has been analysed in one experiment only (n=3)

CN(CCOc1ccc(CC2SC(=O)NC2=O)cc1)c1ccccn1 (centres unmarked) [Compound (I), 5-(4-[2-(N-methyl-N-(2-pyridyl)amino)ethoxy]benzyl)-2,4-thiazolidinedione]
neurite outgrowth (effect in words) (10 nM-5 μM added at time of cell plating): increases neurite outgrowth in rat primary hippocampal neurons in a dose dependant manner | increase of neurite outgrowth over untreated controls (Compound at 100 nM, length of longest neurite relative to cells treated with vehicle (DMSO) alone): approx. 50%
